Experiment [1] has as its system myeloperoxidase (MPO), neutrophil marker in TPA-treated ears. As to the kind of experiment: Mouse ear model of TPA-induced contact inflammation: MPO inhibition (dermal neutrophil infiltration). Conditions: topical on TPA-treated mouse ear, 6 mm biopsy punches; for inhibition in vivo at 0.8 mg: dose 0.8 mg/20 μL; for inhibition in vivo at 0.2 mg: dose 0.2 mg/20 μL. It counts as in vivo. The text has this: (§1) G. et al., Anti-inflammatory Drugs, Clin. Pharmacol. Ther. 16, 900-4 (1974); Young et al., Tachyphylaxis in 12-Otetradecanoylphorbolacetate-and Arachidonic Acid-Induced Ear Edema; J. Invest. Dermatol. 80:48-52, (1983); Tramposch et al., In Vivo Models of Inflammation, (Morgan D W, Marshall L A eds), Birkha{umlaut over ( )}user Verlag: Basel, pp 179-204, 1999; and Gordon et al., Topical N-Acetyl-S-Farnesyl-L-Cysteine Inhibits Mouse Skin Inflammation, and Unlike Dexamethasone, Its Effects Are Restricted to the Application Site, J. Invest. Dermatol., 128(3):643-54, 2008 March)]. Moreover, the mouse ear model has been used by various groups to identify and compare members of differing classes of anti-inflammatory agents with multiple mechanisms of action (reviewed in Tramposch et al., 1999, supra).
To assay for inhibition of dermal neutrophil infiltration by S-isoprenyl and S-farnesyl cysteine compounds, a standard method was used (see Bradley et al., 1982, supra; Young et al., 1983, supra; De Young et al, “Edema and Cell Infiltration in the Phorbol Ester-treated Mouse Ear are Temporally Separate and can be Differentially Modulated by Pharmacologic Agents”, Agents Actions, 26(3-4): 335-41 (March 1989); and Rao et al. (1993) Comparative Evaluation of Arachidonic Acid (AA)-and Tetradecanoylphorbol Acetate (TPA)-Induced Dermal Inflammation, Inflammation 17:723-41). Briefly, we homogenized 6 mm biopsy punches taken from both compound-treated ears as well as TPA-treated and non-treated control groups. We quantitated the levels of MPO by a colorimetric reaction that was measured spectrophotometrically. The percent inhibition of neutrophil infiltration by each S-isoprenyl and S-farnesyl cysteine compound was determined by comparing the average MPO levels in the presence and absence of these compounds. The calculation for percent inhibition of MPO was determined similar to that as described for calculating the percent edema inhibition, see the Edema Inhibition protocol, supra. […] Gordon et al., “Topical N-acetyl-S-farnesyl-L-cysteine Inhibits Mouse Skin Inflammation, and Unlike Dexamethasone, its Effects Are Restricted to the Application Site”, J. Invest. Derm., Vol. 128 pp. 643-654 (2008).

In experiment [2] the test system is TPA-treated ears of mice. As to the kind of experiment: Mouse ear model of TPA-induced contact inflammation: edema inhibition (ear thickness). In kind it is in vivo. Conditions: topical on TPA-treated mouse ear, 24 hours; for inhibition in vivo at 0.8 mg: dose 0.8 mg/20 μL; for inhibition in vivo at 0.2 mg: dose 0.2 mg/20 μL.
Excerpt: as §1
The protocol for inducing in vivo acute contact inflammation on the ears of live mice has been described elsewhere (reviewed in Tramposch, 1999, supra). In brief, mice were sedated and their ears were treated with 1.2 μg/20 uL TPA (i.e., tetradecanoylphorbol-13-acetate). […] After 24 hours, the mice were sacrificed and edema was measured by taking micrometer readings of each ear. The percent inhibition of edema was determined by taking the average ear thickness of compound-treated ears and dividing it by the average thickness of 12 ears that only received TPA and subtracting that value from 100%. These values were corrected for the thickness of normal, non TPA-treated mouse ears of littermate controls. […] ED50 values were calculated as described in Gordon et al., “Topical N-acetyl-S-farnesyl-L-cysteine Inhibits Mouse Skin Inflammation, and Unlike Dexamethasone, its Effects Are Restricted to the Application Site”, J. Invest. Derm., Vol. 128 pp. 643-654 (2008).

The subject of experiment [3] is TPA-treated ears of mice. Put plainly: Mouse ear model of TPA-induced contact inflammation: erythema inhibition (Δa* redness, chroma meter). Conditions: dose 0.2 mg/20 μL, topical on TPA-treated mouse ear, 24 hours post treatment. In kind it is in vivo.
Excerpt: as §1
Another well documented biomarker of skin inflammation is skin redness, termed erythema, which is caused by capillary congestion and dilation in response to various chemical and environmental insults (see Denig, N. I. et al., Irritant Contact Dermatitis. Clues to Causes, Clinical Characteristics, and Control, Postgrad Med., May (1998); 103(5):199-200, 207-8, 212-3). […]

In experiment [4] the target is membrane-associated isoprenyl-S-cysteinyl methyltransferase (Homo sapiens, UniProt O60725). The settings on record: cited from earlier work.
Chain of membrane-associated isoprenyl-S-cysteinyl methyltransferase (O60725 whole entry): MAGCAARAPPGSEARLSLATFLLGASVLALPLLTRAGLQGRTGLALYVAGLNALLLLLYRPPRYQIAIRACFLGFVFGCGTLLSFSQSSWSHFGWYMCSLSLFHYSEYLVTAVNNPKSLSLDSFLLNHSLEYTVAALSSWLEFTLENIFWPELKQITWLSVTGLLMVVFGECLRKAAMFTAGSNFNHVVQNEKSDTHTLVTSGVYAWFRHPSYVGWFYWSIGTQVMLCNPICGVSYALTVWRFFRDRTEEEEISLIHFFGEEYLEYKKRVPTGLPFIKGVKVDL
The test system of another experiment is dermal inflammation. The settings on record: mice; cited from earlier work.

The structures appear in SMILES notation.

One may read the inhibition in vivo as how much of the control response was suppressed. A lower inhibition in vivo goes with little suppression.

Turning to `CC(C)=CCC/C(C)=C/CC/C(C)=C/CSC[C@H](NC(=O)N1CCOCC1)C(=O)O` [Compound C], the inhibition in vivo at 0.8 mg is 61.8% in experiment [1] and 34.1% in the experiment on TPA-treated ears of mice [2].

For the compound `CNC(=S)N[C@@H](CSC/C=C(\C)CC/C=C(\C)CCC=C(C)C)C(=O)O` [Compound A], the inhibition in vivo at 0.2 mg stood at 8.8 ± 6.29% in experiment [1] and 8.55 ± 3.7% in the experiment on TPA-treated ears of mice [2].

With `CC(C)=CCC/C(C)=C/CC/C(C)=C/CSC[C@H](NC(=O)N(c1ccccc1)c1ccccc1)C(=O)O` [Compound F], the inhibition in vivo at 0.8 mg in experiment [1] turned out to be 79.5%; in the experiment on TPA-treated ears of mice [2], 4.66%.

In the case of `CC(C)=CCC/C(C)=C/CC/C(C)=C/CSC[C@H](Nc1ccnc(NN)n1)C(=O)O` [Compound I], the inhibition in vivo at 0.2 mg is 23.1 ± 6.79% in experiment [1] and 24.7 ± 16.5% with TPA-treated ears of mice [2].

Turning to `CC/N=C(\NCC)N[C@@H](CSC/C=C(\C)CC/C=C(\C)CCC=C(C)C)C(=O)O` [Compound B], in the experiment on TPA-treated ears of mice [3], the “% Inhibition Erythema” value is 0.51 ± 10.81 — %.

Consider `CC(C)=CCC/C(C)=C/CC/C(C)=C/CSC[C@H](NC(=O)N1CCCCC1)C(=O)O` [Compound D], for which the inhibition in vivo at 0.8 mg in experiment [1] stood at 83.7%; in the experiment with TPA-treated ears of mice [2], 32.6%.

For the compound `CC(C)=CCC/C(C)=C/CC/C(C)=C/CSC[C@H](Nc1ccnc(N)n1)C(=O)O` [Compound H], in experiment [1], the inhibition in vivo at 0.2 mg amounted to 63.5 ± 7.03% and the inhibition in vivo at 0.8 mg is 89%. Also, in the experiment on TPA-treated ears of mice [2], the inhibition in vivo at 0.2 mg worked out at 39.7 ± 1.67% and the inhibition in vivo at 0.8 mg was 50.1%.

Regarding `CC(C)=CCC/C(C)=C/CC/C(C)=C/CSC[C@H](Nc1ncccn1)C(=O)O` [Compound J], the inhibition in vivo at 0.2 mg with TPA-treated ears of mice [2] is 1.89 ± 7.75%.

Regarding `CC(C)=CCC/C(C)=C/CC/C(C)=C/CSC[C@H](NC(=O)N1CCNC1=O)C(=O)O` [Compound G], the inhibition in vivo at 0.8 mg was found to be 58% in experiment [1] and 13.4% with TPA-treated ears of mice [2].

As to `CC(C)=CCC/C(C)=C/CC/C(C)=C/CSC[C@H](NC(=O)Nc1ccccc1)C(=O)O` [Compound E], the figures for the inhibition in vivo at 0.8 mg (in experiment [1]; with TPA-treated ears of mice [2]) were 75.4% and 18.2%, respectively.

Take `CC(=O)N[C@@H](CSC/C=C(\C)CC/C=C(\C)CCC=C(C)C)C(=O)O` [AFC, N-acetyl-S-farnesyl-L-cysteine]: the “inhibition of isoprenyl-S-cysteinyl methyltransferase (mode)” value in experiment [4] is recorded as “competitive inhibitor”. For the same compound, the “effect on dermal inflammation” value in the experiment on dermal inflammation was “effectively reduces dermal inflammation”.
